Test results published in ChEMBL document CHEMBL1145318, “Amide-substituted farnesylcysteine analogs as inhibitors of human isoprenylcysteine carboxyl methyltransferase” (Bioorg Med Chem Lett, 2006).

Legend:
[1] = molecular target: T1, Protein-S-isoprenylcysteine O-methyltransferase (Homo sapiens, UniProt O60725); test: Inhibition of human Icmt by methanol vapour diffusion assay
[2] = molecular target: T1, Protein-S-isoprenylcysteine O-methyltransferase; test: Inhibition of human Icmt in Saccharomyces cerevisiae cell membrane relative to control by SPA; values are per cent of control; set-up: concentration or dose not given beside the values

T1 sequence (O60725 whole entry, the tested form may be a part): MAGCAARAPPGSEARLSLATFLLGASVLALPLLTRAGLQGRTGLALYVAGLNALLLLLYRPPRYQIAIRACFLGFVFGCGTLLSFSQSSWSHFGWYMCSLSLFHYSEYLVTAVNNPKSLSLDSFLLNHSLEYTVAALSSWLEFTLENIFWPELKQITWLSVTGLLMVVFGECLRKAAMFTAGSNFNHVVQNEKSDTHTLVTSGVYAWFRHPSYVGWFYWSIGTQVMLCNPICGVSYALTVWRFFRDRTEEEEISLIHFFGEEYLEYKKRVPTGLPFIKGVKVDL

Row | Compound | IC50 [1] | residual activity [2]
1 | COc1ccc(-c2ccc(C(=O)N[C@@H](CSC/C=C(\C)CC/C=C(\C)CCC=C(C)C)C(=O)O)o2)cc1 | 17.4 µM | 35.1%
2 | CC(C)=CCC/C(C)=C/CC/C(C)=C/CSC[C@H](NC(=O)c1cc2ccccc2s1)C(=O)O | 20.3 µM | 28%
3 | CC(C)=CCC/C(C)=C/CC/C(C)=C/CSC[C@H](NC(=O)c1cc(Cl)cc(Cl)c1)C(=O)O | 23 µM | 33.5%

Stronger by IC50 [1], values ahead:

Row | IC50 [1] | residual activity [2] | Compound
4 | 16.6 µM | 50.1% | CC(C)=CCC/C(C)=C/CC/C(C)=C/CSC[C@H](NC(=O)c1ccc([N+](=O)[O-])cc1)C(=O)O
5 | 14.3 µM | 37.1% | CC(C)=CCC/C(C)=C/CC/C(C)=C/CSC[C@H](NC(=O)c1cc([N+](=O)[O-])cc([N+](=O)[O-])c1)C(=O)O
